The structures appear in SMILES notation.

The test system of one assay is CCF-STTG1. As to the kind of experiment: ATPlite cell IC50 screening, CCF-STTG1. It counts as cell-based. The conditions noted are these: Homo sapiens; CCF-STTG1, Astrocytoma; ATPlite luminescence. As to the method: (§1) In brief, the cells were cultures in relevant medium and treated with a range of 9 doses of 2-deoxyribitol, from 10 mM, 5 mM, 2.5 mM, 1.25 mM, 0.62 mM, 0.31 mM, 0.08 mM, and 0.04 mM. Cells were diluted in the corresponding ATCC recommended medium and dispensed in a 384-well plate, depending on the cell line used, at a density of 100-6400 cells per well in 45 μl medium. For each used cell line the optimal cell density was used. The margins of the plate were filled with phosphate-buffered saline. Plated cells were incubated in a humidified atmosphere of 5% CO2 at 37° C. After 24 hours, 5 μl of compound dilution was added and plates were further incubated. At the end of experiment (t=end), 24 μl of ATPlite 1Step™ (PerkinElmer) solution was added to each well, and subsequently shaken for 2 minutes. After 10 minutes of incubation in the dark, the luminescence was recorded on an Envision multimode reader (PerkinElmer). IC50 was determined in comparison with the control samples. The cell lines tested and their corresponding disease model is indicated the left-most and middle columns, respectively. IC50 values are given in μM values in the right-most column. This screening was performed of a list of cancer cells to establish IC50 values for each of the cancer cell lines. This screening provides evidence for the potential of 2DR to treat many cancer types.
A general note: In ATP-based viability assays light output follows the ATP content of the culture.

Another assay deals with THP-1. Nature of the assay: ATPlite cell IC50 screening, THP-1. It counts as cell-based. To be noted: Homo sapiens; THP-1, Childhood acute monocytic leukemia; ATPlite luminescence. As to the method: as §1

Take `OCC[C@H](O)[C@H](O)CO` [2-deoxyribitol]: the IC50 (as a rule, the concentration at which inhibition is half-maximal) with CCF-STTG1 was determined as 5.84 mM; in the assay with THP-1 it was 5.19 mM.

(Values after patent US12257214B2, “Compositions and methods comprising deoxy-pentitols” (The Charlotte Mecklenburg Hospital Authority, priority 2021, dated 2025).)
